In patent publication US6974824B2, “Kappa opioid receptor ligands” (Research Triangle Institute, priority 2001, dated 2005):
Like-named read-outs stand apart in the source and are kept apart here.

What was measured:
[1] = molecular target: delta opioid receptor (UniProt P33533); assay: Radioligand competitive binding, [3H]DADLE
[2] = molecular target: mu opioid receptor (Cavia porcellus, UniProt A0ACM8Q262); assay: Inhibition of DAMGO-stimulated [35S]GTP-γ-S binding in guinea pig caudate; type: biochemical; settings: read-out: Apparent Functional Ki (nM ± SD) μ DAMGO
[3] = molecular target: T1, delta opioid receptor (Cavia porcellus, UniProt A0A286XTF2); settings: read-out: Apparent Functional Ki (nM ± SD) δ DADLE; [35S]GTP-γ-S, guinea pig caudate, SNC-80-stimulated (footnote b)
[4] = molecular target: mu opioid receptor (UniProt P33535); assay: Radioligand competitive binding, [3H]DAMGO; settings: read-out: K1 (nM ± SD) μ [3H]DAMGO
[5] = molecular target: T1, delta opioid receptor; assay: biochemical
[6] = molecular target: T2, kappa opioid receptor (Cavia porcellus, UniProt P41144); assay: Inhibition of U69,593-stimulated [35S]GTP-γ-S binding in guinea pig caudate
[7] = molecular target: cloned human kappa opioid receptor (Homo sapiens, UniProt P41145); assay: Inhibition of U69,593-stimulated [35S]GTP-γ-S binding in cloned human opioid receptors; settings: cloned human functional assay versus binding assay
[8] = molecular target: T2, kappa opioid receptor; assay: Radioligand competitive binding, [3H]U69,593; settings: for Ki: read-out: K1 (nM ± SD) κ [3H]U69,593, radioligand binding, [3H]U69,593
[9] = tested on: kappa opioid receptor; assay: Radioligand competitive binding, [3H]U69,593; settings: ratio of binding Ki values, Table 1
[10] = read-out: K1 (nM ± SD) δ [3H]DADLE; radioligand binding, [3H]DADLE
[11] = radioligand binding, [3H]DADLE; read-out: K1 (nM ± SD) δ [3H]DADLE

| SMILES | Ki [1, 10] [nM] | Ki [4] [nM] | Ki [1, 11] [nM] | Ki [8] [nM] | δ/κ [9] | μ/κ [9] | also measured |
| --- | --- | --- | --- | --- | --- | --- | --- |
| Oc1ccc2c3c1O[C@H]1c4[nH]c5c(c4C[C@@]4(O)[C@@H](C2)N(CC2CC2)CC[C@]314)C[C@@]1(O)[C@H]2Cc3ccc(O)c4c3[C@@]1(CCN2CC1CC1)[C@H]5O4 [6, nor-BNI, nor-binaltorphimine, reference compound] | 86 |  |  |  |  |  | Ki [2]: 16.7 nM; Ki [3]: 10.2 nM |
| CC(C)[C@@H](CN1CC[C@@](C)(c2cccc(O)c2)[C@@H](C)C1)NC(=O)[C@H]1Cc2ccc(O)cc2CN1 [Compound 14, (3R)-7-Hydroxy-N-((1S)-1-{[(3R,4R)-4-(3-hydroxyphenyl)-3,4-dimethyl-1-piperidinyl]methyl}-2-methylpropyl)-1,2,3,4-tetrahydro-3-isoquinolinecarboxamide] |  | 3.73 ± 0.17 | 301 ± 50 |  |  |  | Ki [2]: 2.16 ± 0.75 nM; Ki [5]: > 300 nM; Ki [6]: 0.02 nM; improvement in kappa receptor Ki compared with the binding assay [7]: 53 fold |
| CC(C)[C@@H](CN1CC[C@@](C)(c2cccc(O)c2)[C@@H](C)C1)NC(=O)[C@@H]1Cc2ccc(O)cc2CN1 [Compound 15, (3S)-7-Hydroxy-N-((1S)-1-{[(3R,4R)-4-(3-hydroxyphenyl)-3,4-dimethyl-1-piperidinyl]methyl}-2-methylpropyl)-1,2,3,4-tetrahydro-3-isoquinolinecarboxamide] |  | 596 ± 29 | > 4900 | 9.8 ± 1.6 |  |  |  |
| CC(C)[C@@H](CN1CC[C@@](C)(c2cccc(O)c2)[C@@H](C)C1)NC(=O)[C@H]1Cc2ccccc2CN1 [Compound 16, (3R)-N-((1S)-1-{[(3R,4R)-4-(3-Hydroxyphenyl)-3,4-dimethyl-1-piperidinyl]methyl}-2-methylpropyl)-1,2,3,4-tetrahydro-3-isoquinolinecarboxamide] | > 4900 | 775 ± 75 |  | 2.1 | >2333 | 369 |  |
| CC(C)[C@@H](CN1CC[C@@](C)(c2cccc(O)c2)[C@@H](C)C1)NC(=O)[C@H]1Cc2ccc(O)cc2CN1C(=O)CN(C)C [Compound 17, (3R)-2-(N,N-Dimethylglycyl)-7-hydroxy-N-((1S)-1-{[(3R,4R)-4-(3-hydroxyphenyl)-3,4-dimethyl-1-piperidinyl]methyl}-2-methylpropyl)-1,2,3,4-tetrahydro-3-isoquinolinecarboxamide] | > 3400 | 164 ± 10.5 |  | 15 ± 1.2 | >219 | 11 |  |
| CC(C)[C@@H](CN1CC[C@@](C)(c2cccc(O)c2)[C@@H](C)C1)NC(=O)[C@@H]1Cc2ccc(O)cc2CN1C [Compound 18, (3S)-7-Hydroxy-N-((1S)-1-{[(3R,4R)-4-(3-hydroxyphenyl)-3,4-dimethyl-1-piperidinyl]methyl}-2-methylpropyl)-2-methyl-1,2,3,4-tetrahydro-3-isoquinolinecarboxamide] | 616 ± 59 | 37 ± 1.4 |  |  | 11622 | 700 | potency relative to the reference compound nor-BNI (6) ([8]; opioid receptor binding data, kappa): 20 fold |
| CC(C)[C@@H](CN1CC[C@@](C)(c2cccc(O)c2)[C@@H](C)C1)NC[C@H]1Cc2ccc(O)cc2CN1 [Compound 19, (3R)-3-{[((1S)-1-{[(3R,4R)-4-(3-Hydroxyphenyl)-3,4-dimethyl-1-piperidinyl]methyl}-2-methylpropyl)amino]methyl}-1,2,3,4-tetrahydro-7-isoquinolinol] |  |  |  | 0.63 ± 0.05 |  |  | Ki ([1]; read-out: K1 (nM ± SD) δ [3H]DADLE): 5570 ± 713 nM |
| CC(C)[C@@H](CN1CC[C@@](C)(c2cccc(O)c2)[C@@H](C)C1)NC[C@H]1Cc2ccc(O)cc2CN1C [Compound 20, (3R)-3-{[((1S)-1-{[(3R,4R)-4-(3-Hydroxyphenyl)-3,4-dimethyl-1-piperidinyl]methyl}-2-methylpropyl)amino]methyl}-2-methyl-1,2,3,4-tetrahydro-7-isoquinolinol] |  | 59 ± 2.5 | 2230 ± 187 | 0.55 ± 0.04 | 4056 | 107 |  |
| CC(C)[C@@H](CN1CC[C@](C)(c2cccc(O)c2)[C@H](C)C1)NC(=O)[C@H]1Cc2ccc(O)cc2CN1 [Compound 21, (3R)-7-Hydroxy-N-((1S)-1-{[(3S,4S)-4-(3-hydroxyphenyl)-3,4-dimethyl-1-piperidinyl]methyl}-2-methylpropyl)-1,2,3,4-tetrahydro-3-isoquinolinecarboxamide] |  | 138 ± 8 | 144 ± 15 | 17.5 ± 2.5 |  |  |  |
